Reference: US20190307843A1, “SINGLE DOSE METHODS FOR PREVENTING AND TREATING FUNGAL INFECTIONS” (Cidara Therapeutics, Inc., priority 2016, published 2019)
Values joined by “and” are separate entries in the source; they are usually repeats but may differ in a detail not shown here. Identical values can stand only once. Starred links: 1 amine or outer side, 2 acyl side, 3 side chain; linkers in the order of their positions; H or OH if unused. Positions of bridges follow the written chain, without caps; N, C: chain ends. Non-standard residues stand in square brackets, D forms with d. Residues, ends and D or L forms follow the SMILES beside them. *: point of attachment. hTyr(3S-OH,4S-OH,3'-OSO3H) = N[C@H](C(=O)O)[C@H](O)[C@@H](O)c1ccc(O)c(OS(=O)(=O)O)c1; Orn(4R-OH,5R-OH) = O=C([C@H](C[C@@H](O)[C@@H](O)N[*:3])N[*:1])[*:2]; Pro(3S-OH,4S-Me) = C[C@H]1CN[C@H](C(=O)O)[C@H]1O; X1 = CCCCCOc1ccc(-c2cc(-c3ccc(C(=O)*)cc3)no2)cc1; Gln(3R-OH) = NC(=O)C[C@@H](O)[C@H](N)C(=O)O; Hyp = O=C(O)[C@@H]1C[C@@H](O)CN1

Tests used:
[1] = test system: A. fumigatus strain AF293; experiment: Murine model of pulmonary aspergillosis (Example 13), terminal lung burden; assay type: in vivo, Aspergillus fumigatus
Description: A secondary endpoint for the study was terminal lung tissue burden. Immediately following confirmation of death, carcasses were frozen at −20° C. prior to tissue dissection and processing. The frozen carcasses were thawed at room temperature and the lungs removed and placed into pre-weighed bead-beating tubes containing 2 mL of PBS and subjected to mechanical disruption. Organ homogenates were diluted further in PBS and quantitatively cultured for A. fumigatus onto SABC and incubated at 30° C. for 24-48 hours. In addition, a 300 μL aliquot of the undiluted lung tissue homogenate was stored at −80° C. for possible optional assessment of burden by qPCR.

[2] = test system: A. fumigatus AF293; experiment: Pulmonary aspergillosis, prophylaxis, neutropenic ICR mice (Examples 17, 18), survival; assay type: in vivo, Aspergillus fumigatus; details: micafungin 5 mg/kg
Description: Intranasal infection with A. fumigatus AF293 (10^5 CFU/mouse) on Day 0. Prophylaxis CD101 as a single dose (IP; 5, 10, 20 mg/kg) or posaconazole (PO; 2 and 10 mg/kg) 1 day prior to infection. Survival monitored for 10 days.
Intranasal challenge with A. fumigatus AF293 (10^5 CFU/mouse) was initiated on Day 0 and prophylaxis with CD101 as a single dose (IP; 5, 10, 20 mg/kg) or posaconazole (PO; 2 and 10 mg/kg) was started 1 day prior to infection. Survival was monitored for 10 days.

[3] = test system: A. fumigatus AF293; experiment: Murine model of pulmonary aspergillosis (Example 19), survival
[4] = test system: A. fumigatus strain AF293; experiment: Murine model of pulmonary aspergillosis (Example 13), survival
[5] = test system: C. auris; experiment: Murine model of disseminated candidiasis, C. auris infection, kidney CFU and survival; assay type: in vivo, Candida auris
[6] = test system: C. albicans SC-5314 biofilms; experiment: Adhesion phase biofilms (prevention), XTT metabolic activity and CSLM; assay type: cell-based, Candida albicans
[7] = Micafungin 5 mg/kg IP once, Day 1 pre-infection

`CCCCCOc1ccc(-c2cc(-c3ccc(C(=O)N[C@H]4C[C@@H](O)[C@@H](O)NC(=O)[C@@H]5[C@@H](O)[C@@H](C)CN5C(=O)[C@H]([C@H](O)CC(N)=O)NC(=O)[C@H]([C@H](O)[C@@H](O)c5ccc(O)c(OS(=O)(=O)O)c5)NC(=O)[C@@H]5C[C@@H](O)CN5C(=O)[C@H]([C@@H](C)O)NC4=O)cc3)no2)cc1` [Micafungin, micafungin] (X1-[Orn(4R-OH,5R-OH)]T[Hyp][hTyr(3S-OH,4S-OH,3'-OSO3H)][Gln(3R-OH)][Pro(3S-OH,4S-Me)]; lactam 1-C) was tested, and the “Group Geometric mean (lung burden)” value ([1]; Micafungin 2 mg/kg IP Day 0) was 1.08 × 10^4 CFU/g, the “Log10 Group Geometric mean (lung burden)” value ([1]; Micafungin 2 mg/kg IP Day 0) was 4.03 CFU/g and the “Log10 reduction from vehicle control” value ([1]; Micafungin 2 mg/kg IP Day 0) was −0.26 CFU/g. For the same molecule, the “Group Geometric mean (lung burden)” value ([1]; Micafungin 2 mg/kg IP Day −1) was 4.34 x 10^4 CFU/g, the “Log10 Group Geometric mean (lung burden)” value ([1]; Micafungin 2 mg/kg IP Day −1) was 4.64 CFU/g and the “Log10 reduction from vehicle control” value ([1]; Micafungin 2 mg/kg IP Day −1) was −0.86 CFU/g. For the same molecule, the survival [2] was “no survivors”, the “survival time post infection, range” value ([3]; Micafungin 5 mg/kg IP once) was 71 to 162 h and the “Mean Survival” value [3, 7] was 92 h and 92.0 h. For the same molecule, the “Median Survival” value [3, 7] was 80 h and 80.0 h, the survival ([3]; micafungin 5 mg/kg once one day pre-infection) was “did not show any improvement in survival” and the “Mean Survival” value ([4]; Micafungin 2 mg/kg IP Day 0) was 75.3 h. For the same molecule, the “Median Survival” value ([4]; Micafungin 2 mg/kg IP Day 0) was 73.3 h, the “Mean Survival” value ([4]; Micafungin 2 mg/kg IP Day −1) was 64.7 h and the “Median Survival” value ([4]; Micafungin 2 mg/kg IP Day −1) was 64.7 h.
`OC(Cn1cncn1)(Cn1cncn1)c1ccc(F)cc1F` [fluconazole] was tested, and the “percent survival at the end of the study” value [5] was 0%, the thickness of biofilms ([6]; fluconazole) was “no effect on biofilm thickness” and the “biofilm formation by metabolic activity (XTT)” value ([6]; fluconazole 1 and 4 μg/ml, 24 h) was “did not inhibit biofilm formation”.
